# Where a name gives a salt, the structure may show the parent alone. Read-outs that look alike come from different tables or passages of the source.
# Legend:
# [1] = at 10 minutes; stable formulation of enalapril sodium salt according to EP-A-0545194; cited from earlier work
# [2] = test system: male patients with slight-moderate AHT; test: Placebo-controlled open clinical trial in slight-moderate AHT; type: in vivo; conditions: single-drug treatment, 5 mg once a day for 2 weeks (9 patients nitrendipine, 11 patients enalapril)
# Procedure: A placebo-controlled, open clinical trial was carried out in male patients with slight-moderate AHT, defined as systolic blood pressure values (SAT) between 165 and 144 mmHg and diastolic blood pressure values (DAT) between 95 and 105 mmHg, taken in decubitus position after 5 minutes' rest.
# [3] = test system: patients with congestive heart failure; conditions: long-term treatment (over one year), cited from earlier work
# [4] = test system: rat experimentally hypertense by aortic coarctation; test: Antihypertensive activity in the rat experimentally hypertense by aortic coarctation (conscious animal); type: in vivo; conditions: for distolic arterial pressure / systolic arterial pressure / diastolic arterial pressure: mean(SD)
# Procedure: The antihypertensive activity of the association of enalapril and nitrendipine was tested in comparison with each one of the isolated components in an experimental model of hypertension by arterial coarction in the rat. Measurement of the arterial pressure was carried out with the animal conscious. The doses tested were as follows: • Enalapril maleate 1 mg/kg (p.o.) • Nitrendipine 3 mg/kg (p.o.) • Enalapril maleate and Nitrendipine (1 and 3) mg/kg (p.o.) • Enalapril maleate and Nitrendipine (0.5 and 1.5) mg/kg (p.o.) The control group received the carrier (CMC Carboxymethylcellulose 1% en distilled water), the administration volume being […] (p.o.).
# [5] = 1 mg/kg p.o., 0 minutes following administration
# [6] = 1 mg/kg p.o., 5 minutes following administration
# [7] = 1 mg/kg p.o., 15 minutes following administration
# [8] = 1 mg/kg p.o., 30 minutes following administration
# [9] = 1 mg/kg p.o., 45 minutes following administration
# [10] = 1 mg/kg p.o., 60 minutes following administration
# [11] = 1 mg/kg p.o., 120 minutes following administration
# [12] = 1 mg/kg p.o., 240 minutes following administration
# [13] = 1 mg/kg p.o., 360 minutes following administration
# [14] = 1 mg/kg p.o., 540 minutes following administration
# [15] = 3 mg/kg p.o., 0 minutes following administration
# [16] = 3 mg/kg p.o., 5 minutes following administration
# [17] = 3 mg/kg p.o., 15 minutes following administration
# [18] = 3 mg/kg p.o., 30 minutes following administration
# [19] = 3 mg/kg p.o., 45 minutes following administration
# [20] = 3 mg/kg p.o., 60 minutes following administration
# [21] = 3 mg/kg p.o., 120 minutes following administration
# [22] = 3 mg/kg p.o., 240 minutes following administration
# [23] = 3 mg/kg p.o., 360 minutes following administration
# [24] = 3 mg/kg p.o., 540 minutes following administration
compound,measurement,setting,value
"CCOC(=O)[C@H](CCc1ccccc1)N[C@@H](C)C(=O)N1CCC[C@H]1C(=O)O [enalapril, 1-(N-((S)-1-ethoxycarbonyl-3-fenilpropyl) -L-alanil)-L-prolina]",dissolution rate of enalapril,[1],100%
same,"blood pressure normalized, number of patients",[2],2 patients
same,improvement of mortality and morbidity rates,[3]; severe heart failure (CONSENSUS),approximately 30%
same,improvement of mortality and morbidity rates,[3]; slight and moderate heart failure (SOLVD),approximately 15%
same,distolic arterial pressure,[4]; [5],138(5)
same,distolic arterial pressure,[4]; [6],138(3)
same,distolic arterial pressure,[4]; [7],123(1)
same,distolic arterial pressure,[4]; [8],116(4)
same,distolic arterial pressure,[4]; [9],117(1)
same,distolic arterial pressure,[4]; [10],109(1)
same,distolic arterial pressure,[4]; [11],116(5)
same,distolic arterial pressure,[4]; [12],116(3)
same,distolic arterial pressure,[4]; [13],117(2)
same,distolic arterial pressure,[4]; [14],126(4)
"CCOC(=O)[C@H](CCc1ccccc1)N[C@@H](C)C(=O)N1CCC[C@H]1C(=O)O [Enalapril maleate, 1-(N-((S)-1-ethoxycarbonyl-3-fenilpropyl) -L-alanil)-L-prolina]",systolic arterial pressure,[4]; [5],168(6)
same,systolic arterial pressure,[4]; [6],165(5)
same,systolic arterial pressure,[4]; [7],144(2)
same,systolic arterial pressure,[4]; [8],139(3)
same,systolic arterial pressure,[4]; [9],139(6)
same,systolic arterial pressure,[4]; [10],134(1)
same,systolic arterial pressure,[4]; [11],141(3)
same,systolic arterial pressure,[4]; [12],146(1)
same,systolic arterial pressure,[4]; [13],148(4)
same,systolic arterial pressure,[4]; [14],165(6)
same,antihypertensive effect,"[4]; oral administration, 1 mg/kg",moderate antihypertensive effect
same,antihypertensive effect sustained following administration,"[4]; oral administration, 1 mg/kg",up to 6 hours
"CCOC(=O)C1=C(C)NC(C)=C(C(=O)OC)C1c1cccc([N+](=O)[O-])c1 (racemic) [Nitrendipine, ethyl and methyl ester of the acid 1,4-dihydro-2,6-dimethyl-4-(3-nitrophenyl)-3,5-pyridindicarboxylic]","blood pressure normalized, number of patients",[2],1 patients
same,diastolic arterial pressure,[4]; [15],136(5)
same,systolic arterial pressure,[4]; [15],172(6)
same,diastolic arterial pressure,[4]; [16],105(1)
same,systolic arterial pressure,[4]; [16],119(2)
same,diastolic arterial pressure,[4]; [17],83(4)
same,systolic arterial pressure,[4]; [17],117(6)
same,diastolic arterial pressure,[4]; [18],84(2)
same,systolic arterial pressure,[4]; [18],112(4)
same,diastolic arterial pressure,[4]; [19],88(5)
same,systolic arterial pressure,[4]; [19],115(3)
same,diastolic arterial pressure,[4]; [20],92(1)
same,systolic arterial pressure,[4]; [20],119(6)
same,diastolic arterial pressure,[4]; [21],113(4)
same,systolic arterial pressure,[4]; [21],141(5)
same,diastolic arterial pressure,[4]; [22],128(3)
same,systolic arterial pressure,[4]; [22],163(2)
same,diastolic arterial pressure,[4]; [23],132(2)
same,systolic arterial pressure,[4]; [23],169(1)
same,diastolic arterial pressure,[4]; [24],131(5)
same,systolic arterial pressure,[4]; [24],160(5)
same,return to basal values following administration,"[4]; oral administration, 3 mg/kg",4 h

# From patent publication EP0884054B9, “Fixed-dose association of an angiotensin-converting enzyme inhibitor and of a calcium channel antagonist for the treatment of cardiovascular illnesses” (Procter & Gamble Pharmaceuticals S.A.R.L., priority 1997, dated 1998)
